According to paper PMC7588595, “Small-molecule active pharmaceutical ingredients of approved cancer therapeutics inhibit human aspartate/asparagine-β-hydroxylase” (Bioorganic & Medicinal Chemistry, 2020):
Where two headings read alike, the source gives them in different places.

Target: T1, human AspH (His6-AspH315–758) (Homo sapiens, UniProt Q12797)
T1 construct: N-Terminally His6-tagged human AspH315–758 (His6-AspH315–758) was produced in Escherichia coli BL21 (DE3) cells; made in house; host or cells: Escherichia coli BL21 (DE3), pET-28a(+) vector
T1 sequence (Q12797 315-758): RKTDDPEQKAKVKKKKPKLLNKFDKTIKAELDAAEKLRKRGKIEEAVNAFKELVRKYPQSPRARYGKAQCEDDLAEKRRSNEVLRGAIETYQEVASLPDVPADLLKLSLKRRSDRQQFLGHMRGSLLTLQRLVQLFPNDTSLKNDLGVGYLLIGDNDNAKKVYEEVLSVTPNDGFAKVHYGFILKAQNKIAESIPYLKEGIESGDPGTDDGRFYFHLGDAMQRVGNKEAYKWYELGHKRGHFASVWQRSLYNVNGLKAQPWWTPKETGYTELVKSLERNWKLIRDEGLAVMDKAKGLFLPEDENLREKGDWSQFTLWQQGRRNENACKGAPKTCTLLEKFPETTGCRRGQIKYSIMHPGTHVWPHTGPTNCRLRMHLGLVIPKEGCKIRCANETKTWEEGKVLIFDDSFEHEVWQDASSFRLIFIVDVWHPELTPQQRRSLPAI
Assay: SPE-MS AspH inhibition assay (hFX-CP101-119 substrate hydroxylation)
Type: biochemical

[1] = AspH-inhibitor screening, 384-well Plate 1
[2] = AspH-inhibitor screening, 384-well Plate 1, substrate conversion
[3] = AspH-inhibitor screening, Plate 1-duplicate
[4] = AspH-inhibitor screening, Plate 1-duplicate, substrate conversion

Row | Structure (SMILES) | Plate 1 (% inhibition) [1] [%] | Plate 1 (% conversion) [2] [%] | Plate 1-duplicate (% inhibition) [3] [%] | Plate 1-duplicate (% conversion) [4] [%] | Plate 1 (% conversion) [%] | Plate 1 (% inhibition) [%] | Plate 1-duplicate (% conversion) [%] | Plate 1-duplicate (% inhibition) [%]
1 | NC1(c2ccc(-c3nc4ccn5c(=O)[nH]nc5c4cc3-c3ccccc3)cc2)CCC1 [MK-2206] | -21.29 | 59.58 | -13.95 | 58.96 |  |  |  | 
2 | O=c1[nH]cc(F)c(=O)[nH]1 [Fluorouracil] | 7.47 | 46.30 | 5.36 | 49.38 |  |  |  | 
3 | Cc1c(C(=O)Nc2ccc(N3C[C@@H](C)O[C@@H](C)C3)nc2)cccc1-c1ccc(OC(F)(F)F)cc1.O=P(O)(O)O.O=P(O)(O)O [NVP-LDE225 (Diphosphate salt)] | -20.13 | 59.05 | -19.69 | 61.81 |  |  |  | 
4 | c1cc(CN2CCCNCCNCCCNCC2)ccc1CN1CCCNCCNCCCNCC1 [Plerixafor] | 9.96 | 45.15 | 5.23 | 49.45 |  |  |  | 
5 | CCN(CCO)CCCOc1ccc2c(Nc3cc(CC(=O)Nc4cccc(F)c4)[nH]n3)ncnc2c1 [AZD1152-HQPA] | 1.19 | 49.20 | 0.26 | 51.91 |  |  |  | 
6 | S=P(N1CC1)(N1CC1)N1CC1 [Thio-TEPA] | 17.81 | 41.53 | 7.73 | 48.21 |  |  |  | 
7 | CCc1cncnc1N1CCN(Cc2nc3ccc(C(F)(F)F)cc3[nH]2)CC1 [PF-04708671] | -5.43 | 52.26 | -7.38 | 55.70 |  |  |  | 
8 | O=C(O)CC[C@H]1CC[C@@](c2cc(F)ccc2F)(S(=O)(=O)c2ccc(Cl)cc2)CC1 [MK-0752] | 11.87 | 44.27 | 9.89 | 47.14 |  |  |  | 
9 | CN(C)C(=N)NC(=N)N.Cl [Metformin hydrochloride aq] | 5.05 | 47.42 | 7.45 | 48.35 |  |  |  | 
10 | c1ccc2c(CCNc3ccc(Nc4ccncc4)cc3)c[nH]c2c1 [JNJ 26854165 (Serdemetan)] | 32.19 | 34.89 | 30.40 | 36.96 |  |  |  | 
11 | Cc1ccc(Nc2nccc(N(C)c3ccc4c(C)n(C)nc4c3)n2)cc1S(N)(=O)=O [Pazopanib] | 4.18 | 47.82 | -21.51 | 62.71 |  |  |  | 
12 | C[C@]12O[C@H](C[C@]1(O)CO)n1c3ccccc3c3c4c(c5c6ccccc6n2c5c31)CNC4=O [Lestaurtinib] | 20.36 | 40.35 | 16.08 | 44.07 |  |  |  | 
13 | CCCS(=O)(=O)Nc1ccc(F)c(C(=O)c2c[nH]c3ncc(-c4ccc(Cl)cc4)cc23)c1F [PLX4032_Vemurafenib] | 39.76 | 31.39 | 46.15 | 29.15 |  |  |  | 
14 | CS(=O)(=O)N1CCN(Cc2cc3nc(-c4cccc5[nH]ncc45)nc(N4CCOCC4)c3s2)CC1 [GDC-0941_Pictilisib] | 1.37 | 49.12 | 2.57 | 50.77 |  |  |  | 
15 | Nc1ccccc1NC(=O)c1ccc(CNc2nccc(-c3cccnc3)n2)cc1 [MGCD0103_Mocetinostat] | 4.45 | 47.69 | 6.61 | 48.76 |  |  |  | 
16 | CCCCCCCCCCCCCCCCCCOP(=O)([O-])OC1CC[N+](C)(C)CC1 [Perifosine aq/PBS] | -1.17 | 50.29 | -2.15 | 53.11 |  |  |  | 
17 | CC(C)C[C@H](NC(=O)[C@H](CCc1ccccc1)NC(=O)CN1CCOCC1)C(=O)N[C@@H](Cc1ccccc1)C(=O)N[C@@H](CC(C)C)C(=O)[C@@]1(C)CO1 [Carfilzomib] | -2.16 | 50.75 | -9.02 | 56.51 |  |  |  | 
18 | C#CCC(Cc1cnc2nc(N)nc(N)c2n1)c1ccc(C(=O)N[C@@H](CCC(=O)O)C(=O)O)cc1 (stereo partly drawn) [Pralatrexate] | 13.78 | 43.39 | 14.13 | 45.03 |  |  |  | 

Row | Structure (SMILES) | Plate 1 (% inhibition) [1] [%] | Plate 1 (% conversion) [2] [%] | Plate 1-duplicate (% inhibition) [3] [%] | Plate 1-duplicate (% conversion) [4] [%] | Plate 1 (% conversion) [%] | Plate 1 (% inhibition) [%] | Plate 1-duplicate (% conversion) [%] | Plate 1-duplicate (% inhibition) [%]
19 | CNC(=O)c1ccccc1Sc1ccc2c(/C=C/c3ccccn3)n[nH]c2c1 [Axitinib] | 0.59 | 49.48 | -0.34 | 52.21 |  |  |  | 
20 | CCn1c(C(=O)N(C2CC2)C2CC2)cc2c3c(ncn3C)c(Nc3cc(C)n(C)n3)nc21 [BMS-911543] | -9.55 | 54.16 | -14.91 | 59.44 |  |  |  | 
21 | CC(=O)O[C@]1(C(C)=O)CC[C@H]2[C@@H]3C=C(C)C4=CC(=O)CC[C@]4(C)[C@H]3CC[C@@]21C [Megestrol acetate] | -14.51 | 56.45 | 7.27 | 48.44 |  |  |  | 
22 | O=C(NC[C@H](O)CO)c1ccncc1Nc1ccc(I)cc1F [AS703026_Pimasertib] | 12.00 | 44.21 | 9.34 | 47.41 |  |  |  | 
23 | S=c1[nH]cnc2nc[nH]c12 [Mercaptopurine] | 7.41 | 46.33 | 10.69 | 46.74 |  |  |  | 
24 | COC(=O)c1ccc2c(c1)NC(=O)/C2=C(\Nc1ccc(N(C)C(=O)CN2CCN(C)CC2)cc1)c1ccccc1 [BIBF 1120_Nintedanib] | -13.53 | 56.00 | -2.41 | 53.24 |  |  |  | 
25 | C1CN1c1nc(N2CC2)nc(N2CC2)n1 [Triethylenemelamine] |  |  |  |  | 46.54 | 6.96 | 50.74 | 2.63
26 | O=C(c1ccc(F)c(F)c1Nc1ccc(I)cc1F)N1CC(O)([C@@H]2CCCCN2)C1 [Cobimetinib] | -5.94 | 52.49 | -8.08 | 56.05 |  |  |  | 
27 | CC(C)(C#N)c1cc(Cn2cncn2)cc(C(C)(C)C#N)c1 [Anastrozole] | 2.34 | 48.67 | 3.84 | 50.14 |  |  |  | 
28 | O=[As]O[As]=O (stereo not drawn) [Arsenic(III) oxide] |  |  |  |  | 46.14 | 7.82 | 49.86 | 4.39
29 | CNC(=O)c1ccc(N2C(=S)N(c3ccc(C#N)c(C(F)(F)F)c3)C(=O)C23CCC3)cc1F [RD162] | -1.12 | 50.27 | -2.20 | 53.13 |  |  |  | 
30 | Cn1c(Nc2ccc(C(F)(F)F)cc2)nc2cc(Oc3ccnc(-c4ncc(C(F)(F)F)[nH]4)c3)ccc21 [RAF265] | 38.69 | 31.88 | 34.01 | 35.17 |  |  |  | 
31 | Nc1ccccc1NC(=O)c1ccc(CNC(=O)OCc2cccnc2)cc1 [Entinostat] | -5.93 | 52.49 | -4.09 | 54.07 |  |  |  | 
32 | Cl.N[C@@H](Cc1ccc(N(CCCl)CCCl)cc1)C(=O)O [Melphalan hydrochloride] | 8.23 | 45.95 | 3.67 | 50.22 |  |  |  | 
33 | O=C(O)CCCCC(CCSCc1ccccc1)SCc1ccccc1 (stereo not drawn) [CPI-613] | -2.25 | 50.79 | -2.45 | 53.26 |  |  |  | 
34 | Cn1cc(C[C@@H](N)C(=O)O)c2ccccc21 [1-methyl-D-tryptophan, 95%] | 6.32 | 46.83 | 9.06 | 47.55 |  |  |  | 
35 | CC(=O)Oc1ccccc1C(=O)O [Aspirin (Acetylsalicylic Acid)] | 8.11 | 46.01 | 6.00 | 49.07 |  |  |  | 
36 | CN1CCC(COc2cnc(-c3cccc(Cn4nc(-c5cccc(C#N)c5)ccc4=O)c3)nc2)CC1 [EMD1214063] | 3.55 | 48.11 | 3.19 | 50.46 |  |  |  | 
